Source: ChEMBL document CHEMBL1201862, “PubChem BioAssay data set” (2004)
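Interpolation was linear, between the two tested concentrations surrounding the appropriate level; five concentrations were tested over 48 hours in 96-well plates. Abbreviation: GI50, concentration required for 50% inhibition of growth.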 Calls of active or inactive are those of the source. Cut-off read from the data, not from the text of the source: active = GI50 up to about 1.1 µM and inactive = higher.

Tests used:
Assay in all cases: NCI anticancer screen, dose series, 48 h
[1] = test system: DMS-114
[2] = test system: LXFL 529
[3] = test system: NCI-H23
[4] = test system: DLD-1
[5] = test system: HT-29
[6] = test system: COLO 205
[7] = test system: NCI-H522
[8] = test system: A549
[9] = test system: SNB-19
[10] = test system: SNB-78
[11] = test system: XF498
[12] = test system: OVCAR-5
[13] = test system: EKVX
[14] = test system: A498
[15] = test system: OVCAR-4
[16] = test system: ACHN
[17] = test system: UACC-62
[18] = test system: OVCAR-3
[19] = test system: SNB-75
[20] = test system: SF-295
[21] = test system: 786-0
[22] = test system: MOLT-4
[23] = test system: SK-MEL-2
[24] = test system: HCC 2998
[25] = test system: SK-OV-3
[26] = test system: UACC-257
[27] = test system: KM-20L2
[28] = test system: OVCAR-8
[29] = test system: IGROV-1
[30] = test system: U-251
[31] = test system: KM12
[32] = test system: CCRF-CEM
[33] = test system: SN12C
[34] = test system: K562
[35] = test system: CAKI-1
[36] = test system: Malme-3M
[37] = test system: TK-10
[38] = test system: SK-MEL-5
[39] = test system: M14
[40] = test system: SK-MEL-28
[41] = test system: SF-268
[42] = test system: HOP-62
[43] = test system: RPMI-8226
[44] = test system: NCI-H460
[45] = test system: M19-MEL
[46] = test system: SW-620
[47] = test system: UO-31
[48] = test system: SF-539
[49] = test system: HCT-116
[50] = test system: HCT-15
[51] = test system: SR
[52] = test system: NCI-H226
[53] = test system: LOX IMVI
[54] = test system: DMS-273
[55] = test system: HOP-92
[56] = test system: HL-60
[57] = test system: RXF 393

SMILES: COc1ccc(OC)c(CCc2cc(OC)c(OC)cc2C)c1
- GI50 [1]: 5.65 µM (inactive)
- GI50 [2]: 30.1 µM (inactive)
- GI50 [3]: 32.1 µM (inactive)
- GI50 [4]: 4.7 µM (inactive)
- GI50 [5]: 28.4 µM (inactive)
- GI50 [6]: 33.4 µM (inactive)
- GI50 [7]: 3.65 µM (inactive)
- GI50 [8]: 29.3 µM (inactive)
- GI50 [9]: 92.7 µM (inactive)
- GI50 [10]: 7.52 µM (inactive)
- GI50 [11]: 77.6 µM (inactive)
- GI50 [12]: > 100 µM (inactive)
- GI50 [13]: 84.9 µM (inactive)
- GI50 [14]: > 100 µM (inactive)
- GI50 [15]: 8.2 µM (inactive)
- GI50 [16]: > 100 µM (inactive)
- GI50 [17]: 25.2 µM (inactive)
- GI50 [18]: 3.05 µM (inactive)
- GI50 [19]: 16.8 µM (inactive)
- GI50 [20]: 6.89 µM (inactive)
- GI50 [21]: 38.7 µM (inactive)
- GI50 [22]: 12.1 µM (inactive)
- GI50 [23]: 6.68 µM (inactive)
- GI50 [24]: 27.5 µM (inactive)
- GI50 [25]: 23 µM (inactive)
- GI50 [26]: 26.7 µM (inactive)
- GI50 [27]: 49.8 µM (inactive)
- GI50 [28]: 48.5 µM (inactive)
- GI50 [29]: 8.47 µM (inactive)
- GI50 [30]: 43.4 µM (inactive)
- GI50 [31]: 0.63 µM (active)
- GI50 [32]: 11 µM (inactive)
- GI50 [33]: 81.3 µM (inactive)
- GI50 [34]: 3.64 µM (inactive)
- GI50 [35]: 52 µM (inactive)
- GI50 [36]: 4.2 µM (inactive)
- GI50 [37]: 89.7 µM (inactive)
- GI50 [38]: 1.62 µM (inactive)
- GI50 [39]: 4.26 µM (inactive)
- GI50 [40]: 9.38 µM (inactive)
- GI50 [41]: 42 µM (inactive)
- GI50 [42]: 49.1 µM (inactive)
- GI50 [43]: 14.4 µM (inactive)
- GI50 [44]: 34.2 µM (inactive)
- GI50 [45]: 5.51 µM (inactive)
- GI50 [46]: 5.6 µM (inactive)
- GI50 [47]: 30.1 µM (inactive)

SMILES: Cc1cccc(C(C)(C)C)c1NC(=O)CC1C(=O)Nc2ccccc2S1(=O)=O (stereo not drawn)
- GI50 [2]: 12 µM (inactive)
- GI50 [48]: 3.14 µM (inactive)
- GI50 [3]: 5.38 µM (inactive)
- GI50 [4]: 5.5 µM (inactive)
- GI50 [5]: 5.25 µM (inactive)
- GI50 [8]: 13.6 µM (inactive)
- GI50 [9]: 15.5 µM (inactive)
- GI50 [10]: 8.24 µM (inactive)
- GI50 [11]: 11.1 µM (inactive)
- GI50 [12]: 13 µM (inactive)
- GI50 [13]: 2.87 µM (inactive)
- GI50 [49]: 10.4 µM (inactive)
- GI50 [14]: 14.9 µM (inactive)
- GI50 [15]: 11.4 µM (inactive)
- GI50 [16]: 10.8 µM (inactive)
- GI50 [17]: 5.06 µM (inactive)
- GI50 [18]: 5.55 µM (inactive)
- GI50 [19]: 12.5 µM (inactive)
- GI50 [20]: 7.1 µM (inactive)
- GI50 [50]: 4.76 µM
- GI50 [21]: 10 µM (inactive)
- GI50 [51]: 3.21 µM (inactive)
- GI50 [52]: 16.7 µM (inactive)
- GI50 [53]: 5.98 µM (inactive)
- GI50 [22]: 2.28 µM (inactive)
- GI50 [23]: 9.12 µM (inactive)
- GI50 [24]: 8.11 µM (inactive)
- GI50 [26]: 27.6 µM (inactive)
- GI50 [27]: 9.29 µM (inactive)
- GI50 [28]: 10.6 µM (inactive)
- GI50 [29]: 9.33 µM (inactive)
- GI50 [30]: 8.28 µM (inactive)
- GI50 [54]: 4.25 µM (inactive)
- GI50 [32]: 2.34 µM (inactive)
- GI50 [33]: 12.3 µM (inactive)
- GI50 [34]: 2.84 µM (inactive)
- GI50 [35]: 16.8 µM (inactive)
- GI50 [36]: 11.8 µM (inactive)
- GI50 [55]: 11.5 µM (inactive)
- GI50 [37]: 20.5 µM (inactive)
- GI50 [56]: 3.25 µM (inactive)
- GI50 [38]: 12.1 µM (inactive)
- GI50 [39]: 12.8 µM (inactive)
- GI50 [40]: 14.1 µM (inactive)
- GI50 [41]: 11.2 µM (inactive)
- GI50 [43]: 3.24 µM (inactive)
- GI50 [44]: 11 µM (inactive)
- GI50 [45]: 12.4 µM (inactive)
- GI50 [46]: 10.4 µM (inactive)
- GI50 [47]: 11.2 µM (inactive)
- GI50 [57]: 13.4 µM (inactive)
